From BindingDB's records for doi:10.1073/pnas.0705637104 (Nih, 2007)

Target: T1, Lysosomal acid glucosylceramidase (Homo sapiens, UniProt P04062)
T1 sequence (P04062 whole entry): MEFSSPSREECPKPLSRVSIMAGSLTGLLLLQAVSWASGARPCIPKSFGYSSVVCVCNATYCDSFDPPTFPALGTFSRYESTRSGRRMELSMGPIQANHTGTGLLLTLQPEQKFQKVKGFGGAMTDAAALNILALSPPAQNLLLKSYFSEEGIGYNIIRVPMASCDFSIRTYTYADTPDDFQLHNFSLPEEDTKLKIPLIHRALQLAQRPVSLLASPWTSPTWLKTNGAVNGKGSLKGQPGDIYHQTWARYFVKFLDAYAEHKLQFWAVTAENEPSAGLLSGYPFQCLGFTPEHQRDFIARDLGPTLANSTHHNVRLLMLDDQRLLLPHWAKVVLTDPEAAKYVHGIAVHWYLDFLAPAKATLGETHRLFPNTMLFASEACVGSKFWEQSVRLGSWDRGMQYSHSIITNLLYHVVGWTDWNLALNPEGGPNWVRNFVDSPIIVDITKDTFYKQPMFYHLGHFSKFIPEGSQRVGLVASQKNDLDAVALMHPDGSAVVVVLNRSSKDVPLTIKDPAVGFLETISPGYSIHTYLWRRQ
Assay: GC Enzyme Assay
Details: pH 5.9; 21 °C

SMILES | IC50 | Ki
CN(c1ccc(C(=O)Nc2nccs2)cc1)S(=O)(=O)c1ccccc1 | 34.4 µM | 23.4 µM
O=C(Nc1nccs1)c1ccc(NS(=O)(=O)c2ccc(Cl)cc2)cc1 [4-[(4-chlorobenzene)sulfonamido]-N-(1,3-thiazol-2-yl)benzamide] | 1.29 µM | 0.556 µM
